The test system of this assay is PD-L1 expression on CT26 PI negative cells. The assay is described as follows: In vitro UNO exposure of CT26 cells, PD-L1 expression by flow cytometry. In kind it is cell-based, mouse. Here is the method: Preparation of cells—Mouse colon carcinoma CT26.WT cells (ATCC number: CRL-2638) were grown to a 70-80% confluency and harvested using trypsin. Following, the cells were centrifuged at 1,200 revolutions per minute (rpm)—241 G for 8 minutes, then the pellet was re-suspended in 1 ml of cell media (RPMI—1640 supplemented with 10% FBS and 1% Pen-Strep). The cells were counted using an automated cell counter and a total of 2×10^6 cells were seeded into each […] containing 9 ml cell media. The plates were then placed for 24 hours in an incubator at 37° C., 5% CO2.
UNO treatment—Following 24 hours of incubation, cell media was removed, and the plate was placed in an acrylic box stationed within an operating chemical fume hood. Prior to the initiation of treatment, the box was exposed to UV for 1 hour to reduce the chances of contamination. The box was closed and sealed with parafilm. A PVC delivery line was placed within a designated hole on the top of the box and lowered until approximately 5 cm within the box. The flowmeter was set to 1 LPM to expose the cells for the durations and concentrations described in Table 3 (control cells were untreated).
Following treatment, 9 ml of cell media were added to each well and the plate was placed for 24 hours in an incubator at 37° C., 5% CO2.
Flow cytometry—Cell media was removed to a 50 ml centrifuge tube. […]
On the technique in general: Flow cytometry measures light scatter and fluorescence of single cells or particles in a stream.

In the case of `[N]=O` [UNO, nitric oxide], for the setting “25,000-100,000 ppm for 10 s, 30 s or 1 min, depending on dosage and time of exposure”, the “PI negative cells expressing PD-L1” value is given as 70-90%. Also, the “Mean fluorescent intensity (MFI) of PD-L1 expression” value (UNO dosage and time dependent manner) is recorded as “increased”.

For the origin of these results see US20250339462A1, “CANCER TREATMENT USING ULTRA-HIGH CONCENTRATION GASEOUS NITRIC OXIDE AND A CHECKPOINT INHIBITOR” (Beyond Air, Inc., priority 2022, published 2025).
